Data published in ChEMBL document CHEMBL4610050, “Development of novel NLRP3-XOD dual inhibitors for the treatment of gout” (Bioorg Med Chem Lett, 2020).
pIC50: −log10 of the molar value. The source made the active and inactive calls. The calls are words filed in the database; no cut-off is given here.

Experiments:
[1] = target: T1, Xanthine dehydrogenase/oxidase (Homo sapiens, UniProt P47989); assay: Inhibition of xanthine oxidase (unknown origin)
Rattus norvegicus [2] = species on record: Rattus norvegicus; assay: Antiarthritic activity against MSU-induced acute gout arthritis rat model assessed as degree of ankle joint swelling after 2 hrs (reference value: 7.5 +/- 1.6); format: functional
Rattus norvegicus [3] = species on record: Rattus norvegicus; assay: Antiarthritic activity against MSU-induced acute gout arthritis rat model assessed as degree of ankle joint swelling after 4 hrs (reference value: 8.8 +/- 1.7); format: functional
Rattus norvegicus [4] = species on record: Rattus norvegicus; assay: Antiarthritic activity against MSU-induced acute gout arthritis rat model assessed as degree of ankle joint swelling after 8 hrs (reference value: 7.8 +/- 1.6); format: functional
Rattus norvegicus [5] = species on record: Rattus norvegicus; assay: Antiarthritic activity against MSU-induced acute gout arthritis rat model assessed as degree of ankle joint swelling after 24 hrs (reference value: 5.6 +/- 1.8); format: functional
Rattus norvegicus [6] = species on record: Rattus norvegicus; assay: Antiarthritic activity in rat at model of acute gout arthritis assessed as effect on MSU-induced ankle joint swelling after 24 hrs (reference value: 5.6 +/- 1.8); format: functional
Rattus norvegicus [7] = species on record: Rattus norvegicus; assay: Antiarthritic activity against MSU-induced acute gout arthritis rat model assessed as degree of ankle joint swelling after 48 hrs (reference value: 3.4 +/- 0.5); format: functional
Rattus norvegicus [8] = assay: Inhibition of MSU-induced NLRP3 protein expression in synovial tissue of MSU-induced acute gout arthritis rat model at 10 mg/kg by western blot analysis; format: functional, organism-based
Rattus norvegicus [9] = assay: Inhibition of MSU-induced ASC protein expression in synovial tissue of MSU-induced acute gout arthritis rat model at 10 mg/kg by western blot analysis; format: functional, organism-based
Rattus norvegicus [10] = assay: Inhibition of MSU-induced caspase-1 protein expression in synovial tissue of MSU-induced acute gout arthritis rat model at 10 mg/kg by western blot analysis; format: functional, organism-based
[11] = target: T1, Xanthine dehydrogenase/oxidase; assay: Competitive inhibition of xanthine oxidase (unknown origin) by Lineweaver-Burk plot analysis
[12] = target: NACHT, LRR and PYD domains-containing protein 3 (Homo sapiens, UniProt Q96P20); assay: Inhibition of NLRP3 in human THP1 cells assessed as inhibition of MSU-induced IL-1beta production; format: cell-based, THP-1
Mus musculus [13] = assay: Antiarthritic activity in potassium oxonate-induced hyperuricemia mouse model assessed as reduction in uric acid level in serum at 5 to 20 mg/kg; format: functional, organism-based
Mus musculus [14] = assay: In vivo inhibition of xanthine oxidase in potassium oxonate-induced hyperuricemia mouse model assessed as reduction in enzyme activity in liver at 5 mg/kg relative to control; format: functional
Mus musculus [15] = assay: In vivo inhibition of xanthine oxidase in potassium oxonate-induced hyperuricemia mouse model assessed as reduction enzyme activity in liver at 10 mg/kg relative to control; format: functional
Mus musculus [16] = assay: In vivo inhibition of xanthine oxidase in potassium oxonate-induced hyperuricemia mouse model assessed as reduction in enzyme activity in liver at 20 mg/kg relative to control; format: functional
Rattus norvegicus [17] = assay: Antiarthritic activity against MSU-induced acute gout arthritis rat model assessed as degree of ankle joint swelling at 5 mg/kg after 2 hrs (reference value: 7.5 +/- 1.6); format: functional
Rattus norvegicus [18] = assay: Antiarthritic activity against MSU-induced acute gout arthritis rat model assessed as degree of ankle joint swelling at 10 mg/kg after 2 hrs (reference value: 7.5 +/- 1.6); format: functional
Rattus norvegicus [19] = assay: Antiarthritic activity against MSU-induced acute gout arthritis rat model assessed as degree of ankle joint swelling at 20 mg/kg after 2 hrs (reference value: 7.5 +/- 1.6); format: functional
Rattus norvegicus [20] = assay: Antiarthritic activity against MSU-induced acute gout arthritis rat model assessed as degree of ankle joint swelling at 5 mg/kg after 4 hrs (reference value: 8.8 +/- 1.7); format: functional
Rattus norvegicus [21] = assay: Antiarthritic activity against MSU-induced acute gout arthritis rat model assessed as degree of ankle joint swelling at 10 mg/kg after 4 hrs (reference value: 8.8 +/- 1.7); format: functional
Rattus norvegicus [22] = assay: Antiarthritic activity against MSU-induced acute gout arthritis rat model assessed as degree of ankle joint swelling at 20 mg/kg after 4 hrs (reference value: 8.8 +/- 1.7); format: functional
Rattus norvegicus [23] = assay: Antiarthritic activity against MSU-induced acute gout arthritis rat model assessed as degree of ankle joint swelling at 5 mg/kg after 8 hrs (reference value: 7.8 +/- 1.6); format: functional
Rattus norvegicus [24] = assay: Antiarthritic activity against MSU-induced acute gout arthritis rat model assessed as degree of ankle joint swelling at 10 mg/kg after 8 hrs (reference value: 7.8 +/- 1.6); format: functional
Rattus norvegicus [25] = assay: Antiarthritic activity against MSU-induced acute gout arthritis rat model assessed as degree of ankle joint swelling at 20 mg/kg after 8 hrs (reference value: 7.8 +/- 1.6); format: functional
Rattus norvegicus [26] = assay: Antiarthritic activity against MSU-induced acute gout arthritis rat model assessed as degree of ankle joint swelling at 5 mg/kg after 12 hrs (reference value: 6.6 +/- 1.5); format: functional
Rattus norvegicus [27] = assay: Antiarthritic activity against MSU-induced acute gout arthritis rat model assessed as degree of ankle joint swelling at 10 mg/kg after 12 hrs (reference value: 6.6 +/- 1.5); format: functional
Rattus norvegicus [28] = assay: Antiarthritic activity against MSU-induced acute gout arthritis rat model assessed as degree of ankle joint swelling at 20 mg/kg after 12 hrs (reference value: 6.6 +/- 1.5); format: functional
Rattus norvegicus [29] = assay: Antiarthritic activity against MSU-induced acute gout arthritis rat model assessed as degree of ankle joint swelling at 5 mg/kg after 24 hrs (reference value: 5.6 +/- 1.8); format: functional
Rattus norvegicus [30] = assay: Antiarthritic activity against MSU-induced acute gout arthritis rat model assessed as degree of ankle joint swelling at 10 mg/kg after 24 hrs (reference value: 5.6 +/- 1.8); format: functional
Rattus norvegicus [31] = assay: Antiarthritic activity against MSU-induced acute gout arthritis rat model assessed as degree of ankle joint swelling at 20 mg/kg after 24 hrs (reference value: 5.6 +/- 1.8); format: functional
Rattus norvegicus [32] = assay: Antiarthritic activity against MSU-induced acute gout arthritis rat model assessed as degree of ankle joint swelling at 5 mg/kg after 48 hrs (reference value: 3.4 +/- 0.5); format: functional
Rattus norvegicus [33] = assay: Antiarthritic activity against MSU-induced acute gout arthritis rat model assessed as degree of ankle joint swelling at 10 mg/kg after 48 hrs (reference value: 3.4 +/- 0.5); format: functional
Rattus norvegicus [34] = assay: Antiarthritic activity against MSU-induced acute gout arthritis rat model assessed as degree of ankle joint swelling at 20 mg/kg after 48 hrs (reference value: 3.4 +/- 0.5); format: functional
Rattus norvegicus [35] = species on record: Rattus norvegicus; assay: Down regulation of MSU-induced NLRP3 protein expression in synovial tissue of MSU-induced acute gout arthritis rat model by western blot analysis; format: functional, organism-based
Rattus norvegicus [36] = species on record: Rattus norvegicus; assay: Down regulation of MSU-induced ASC protein expression in synovial tissue of MSU-induced acute gout arthritis rat model by western blot analysis; format: functional, organism-based
Rattus norvegicus [37] = species on record: Rattus norvegicus; assay: Down regulation of MSU-induced caspase-1 protein expression in synovial tissue of MSU-induced acute gout arthritis rat model by western blot analysis; format: functional, organism-based
Mus musculus [38] = assay: In vivo inhibition of xanthine oxidase in mouse assessed as reduction of enzyme activity in liver at 5 mg/kg relative to control; format: functional
Mus musculus [39] = assay: In vivo inhibition of xanthine oxidase in mouse assessed as reduction in enzyme activity in liver at 10 mg/kg relative to control; format: functional
Mus musculus [40] = assay: In vivo inhibition of xanthine oxidase in mouse assessed as reduction in enzyme activity in liver at 20 mg/kg relative to control; format: functional
[41] = Cytotoxicity against human THP-1 cells; format: cell-based
Mus musculus [42] = assay: Antiarthritic activity in potassium oxonate-induced hyperuricemia mouse model assessed as reduction in uric acid level in serum at 10 mg/kg; format: functional, organism-based

T1 sequence (P47989 whole entry): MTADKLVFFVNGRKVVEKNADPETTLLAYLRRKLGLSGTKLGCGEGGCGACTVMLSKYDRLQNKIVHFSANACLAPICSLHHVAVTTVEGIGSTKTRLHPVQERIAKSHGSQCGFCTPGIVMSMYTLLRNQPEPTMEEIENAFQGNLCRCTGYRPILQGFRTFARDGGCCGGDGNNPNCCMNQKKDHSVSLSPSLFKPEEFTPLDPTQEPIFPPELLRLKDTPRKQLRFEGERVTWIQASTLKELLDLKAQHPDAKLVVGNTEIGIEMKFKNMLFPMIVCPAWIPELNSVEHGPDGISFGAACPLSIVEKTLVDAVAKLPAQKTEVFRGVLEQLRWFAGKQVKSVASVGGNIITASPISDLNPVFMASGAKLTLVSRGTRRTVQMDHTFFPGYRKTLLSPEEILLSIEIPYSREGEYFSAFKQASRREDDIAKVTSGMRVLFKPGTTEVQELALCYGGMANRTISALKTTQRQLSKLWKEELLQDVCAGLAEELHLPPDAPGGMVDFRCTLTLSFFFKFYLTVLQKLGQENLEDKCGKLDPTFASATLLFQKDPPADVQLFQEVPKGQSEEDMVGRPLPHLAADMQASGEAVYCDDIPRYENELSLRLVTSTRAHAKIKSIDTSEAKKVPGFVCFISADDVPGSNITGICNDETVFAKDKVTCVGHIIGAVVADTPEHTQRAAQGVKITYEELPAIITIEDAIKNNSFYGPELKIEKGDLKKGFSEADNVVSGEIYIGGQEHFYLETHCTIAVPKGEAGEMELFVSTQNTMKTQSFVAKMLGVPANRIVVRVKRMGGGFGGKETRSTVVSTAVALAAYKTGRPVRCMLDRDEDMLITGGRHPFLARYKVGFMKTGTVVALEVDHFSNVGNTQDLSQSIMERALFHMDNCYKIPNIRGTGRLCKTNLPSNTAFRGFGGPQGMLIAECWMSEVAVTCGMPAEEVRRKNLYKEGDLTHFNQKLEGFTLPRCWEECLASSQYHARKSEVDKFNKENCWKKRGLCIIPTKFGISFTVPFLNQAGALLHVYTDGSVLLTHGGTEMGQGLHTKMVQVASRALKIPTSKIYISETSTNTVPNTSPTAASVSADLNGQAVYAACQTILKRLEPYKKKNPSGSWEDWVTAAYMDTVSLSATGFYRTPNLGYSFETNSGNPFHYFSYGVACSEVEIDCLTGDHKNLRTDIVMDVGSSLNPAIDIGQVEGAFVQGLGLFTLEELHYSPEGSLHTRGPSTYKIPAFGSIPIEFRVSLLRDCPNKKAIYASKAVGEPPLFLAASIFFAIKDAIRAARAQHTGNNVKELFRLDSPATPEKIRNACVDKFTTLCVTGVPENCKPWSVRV
Chain of NACHT, LRR and PYD domains-containing protein 3 (Q96P20 whole entry, the tested form may be a part): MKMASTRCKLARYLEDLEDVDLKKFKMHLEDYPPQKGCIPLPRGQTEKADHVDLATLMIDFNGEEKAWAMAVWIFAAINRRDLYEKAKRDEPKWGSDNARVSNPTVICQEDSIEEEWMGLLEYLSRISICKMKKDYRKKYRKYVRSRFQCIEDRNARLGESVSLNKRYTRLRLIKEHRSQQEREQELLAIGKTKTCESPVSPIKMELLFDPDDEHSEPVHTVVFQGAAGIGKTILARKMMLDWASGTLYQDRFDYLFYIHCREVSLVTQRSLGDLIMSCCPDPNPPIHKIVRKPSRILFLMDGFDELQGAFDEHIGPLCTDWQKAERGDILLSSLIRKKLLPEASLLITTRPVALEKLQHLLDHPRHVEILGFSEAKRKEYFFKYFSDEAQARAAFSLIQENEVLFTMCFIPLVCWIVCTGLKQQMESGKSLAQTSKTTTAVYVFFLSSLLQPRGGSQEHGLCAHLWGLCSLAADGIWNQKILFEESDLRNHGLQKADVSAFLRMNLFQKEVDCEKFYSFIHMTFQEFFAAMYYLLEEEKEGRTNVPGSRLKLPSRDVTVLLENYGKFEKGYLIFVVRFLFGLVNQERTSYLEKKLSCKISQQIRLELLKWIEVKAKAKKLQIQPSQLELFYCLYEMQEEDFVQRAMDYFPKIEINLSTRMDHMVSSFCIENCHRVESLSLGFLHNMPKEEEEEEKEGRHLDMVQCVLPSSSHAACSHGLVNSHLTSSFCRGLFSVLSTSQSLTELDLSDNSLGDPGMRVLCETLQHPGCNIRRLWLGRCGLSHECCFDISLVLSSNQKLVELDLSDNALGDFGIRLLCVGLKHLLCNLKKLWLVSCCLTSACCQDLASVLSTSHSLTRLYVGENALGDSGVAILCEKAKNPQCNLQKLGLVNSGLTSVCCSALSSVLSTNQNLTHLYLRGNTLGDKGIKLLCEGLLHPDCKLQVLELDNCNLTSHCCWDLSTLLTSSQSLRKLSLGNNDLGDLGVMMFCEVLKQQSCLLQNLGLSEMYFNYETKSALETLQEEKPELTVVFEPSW

CCCS(=O)(=O)N/N=C(\C)c1nc2ccccc2[nH]1
pIC50 [1]: < 4.30

C/C(=N\NS(=O)(=O)c1ccc(Br)cc1)c1nc2ccccc2o1
pIC50 [1]: < 4.30

COc1cc2c(c(OC)c1OC)-c1ccc(OC)c(=O)cc1[C@@H](NC(C)=O)CC2 [COLCHICINE]
Activity (Rattus norvegicus [2]): 4.9 | Activity (Rattus norvegicus [3]): 4.3 | Activity (Rattus norvegicus [4]): 4 | Activity (Rattus norvegicus [5]): 3.5 | Activity (Rattus norvegicus [6]): 2.8 | Activity (Rattus norvegicus [7]): 2 | inhibition (Rattus norvegicus [8]): Active | inhibition (Rattus norvegicus [9]): Active | inhibition (Rattus norvegicus [10]): Active

CCCCS(=O)(=O)N/N=C(\C)c1nc2ccccc2o1
pIC50 [1]: < 4.30

COc1ccc(S(=O)(=O)N/N=C(\C)c2nc3ccccc3o2)cc1
pIC50 [1]: 5.38 | inhibition (INH) [11]: Active | pIC50 [12]: 5.12 | Activity (Mus musculus [13]): Active | inhibition in vivo at 5 mg/kg (Mus musculus [14]): 19.6% | inhibition in vivo at 10 mg/kg (Mus musculus [15]): 30.6% | inhibition in vivo at 20 mg/kg (Mus musculus [16]): 44.1% | Activity (Rattus norvegicus [17]): 6.5 | Activity (Rattus norvegicus [18]): 6 | Activity (Rattus norvegicus [19]): 5.5 | Activity (Rattus norvegicus [20]): 6.8 | Activity (Rattus norvegicus [21]): 6.1 | Activity (Rattus norvegicus [22]): 5 | Activity (Rattus norvegicus [23]): 5.9 | Activity (Rattus norvegicus [24]): 5.4 | Activity (Rattus norvegicus [25]): 4.2 | Activity (Rattus norvegicus [26]): 6 | Activity (Rattus norvegicus [27]): 4.5 | Activity (Rattus norvegicus [28]): 3.9 | Activity (Rattus norvegicus [29]): 4.9 | Activity (Rattus norvegicus [30]): 2.5 | Activity (Rattus norvegicus [31]): 2.2 | Activity (Rattus norvegicus [32]): 2.9 | Activity (Rattus norvegicus [33]): 1.8 | Activity (Rattus norvegicus [34]): 1.6 | inhibition (Rattus norvegicus [35]): Dose-dependent effect | inhibition (Rattus norvegicus [36]): Dose-dependent effect | inhibition (Rattus norvegicus [37]): Dose-dependent effect | inhibition in vivo at 5 mg/kg (Mus musculus [38]): 3.6% | inhibition in vivo at 10 mg/kg (Mus musculus [39]): 4.6% | inhibition in vivo at 20 mg/kg (Mus musculus [40]): 7.6% | CC50 [41]: 250 µM

COc1ccc(S(=O)(=O)N/N=C(\C)c2nc3ccccc3[nH]2)cc1
pIC50 [1]: < 4.30

C/C(=N\NS(=O)(=O)c1ccc([N+](=O)[O-])cc1)c1nc2ccccc2o1
pIC50 [1]: < 4.30

C/C(=N\NS(=O)(=O)c1ccc(C)cc1)c1nc2ccccc2o1
CC50 [41]: 250 µM

C/C(=N\NS(=O)(=O)c1cccc([N+](=O)[O-])c1)c1nc2ccccc2o1
pIC50 [1]: < 4.30

C/C(=N\NS(=O)(=O)c1ccc([N+](=O)[O-])cc1)c1nc2ccccc2[nH]1
pIC50 [1]: < 4.30

C/C(=N\NS(=O)(=O)c1ccccc1)c1nc2ccccc2o1
pIC50 [1]: < 4.30

Oc1ncnc2[nH]ncc12 [ALLOPURINOL]
Activity (Mus musculus [42]): Active | inhibition in vivo at 10 mg/kg (Mus musculus [15]): 47.9% | inhibition in vivo at 10 mg/kg (Mus musculus [39]): 25.3%

C/C(=N\OC(=O)Cc1ccccc1)c1nc2ccccc2[nH]1
pIC50 [1]: < 4.30

COc1ccc(C(=O)O/N=C(\C)c2nc3ccccc3[nH]2)cc1
pIC50 [1]: < 4.30

C/C(=N\NS(=O)(=O)c1ccccc1)c1nc2ccccc2[nH]1
pIC50 [1]: < 4.30

C/C(=N\NS(=O)(=O)c1ccc(Br)cc1)c1nc2ccccc2[nH]1
pIC50 [1]: < 4.30

O=C(/C=C/c1ccc(O)cc1)c1ccc(O)cc1O [ISOLIQUIRITIGENIN]
pIC50 [12]: 5.00 | CC50 [41]: 250 µM
